# Results published in US7211597B2, “Substituted pyrazolyl compounds for the treatment of inflammation” (priority 2001, dated 2007).
# Biological target: T1, IKK2 (IKKβ) (Homo sapiens, UniProt O14920)
# T1 construct: made in house; host or cells: baculovirus-infected insect cells (SF9)
# T1 sequence (O14920 1-756): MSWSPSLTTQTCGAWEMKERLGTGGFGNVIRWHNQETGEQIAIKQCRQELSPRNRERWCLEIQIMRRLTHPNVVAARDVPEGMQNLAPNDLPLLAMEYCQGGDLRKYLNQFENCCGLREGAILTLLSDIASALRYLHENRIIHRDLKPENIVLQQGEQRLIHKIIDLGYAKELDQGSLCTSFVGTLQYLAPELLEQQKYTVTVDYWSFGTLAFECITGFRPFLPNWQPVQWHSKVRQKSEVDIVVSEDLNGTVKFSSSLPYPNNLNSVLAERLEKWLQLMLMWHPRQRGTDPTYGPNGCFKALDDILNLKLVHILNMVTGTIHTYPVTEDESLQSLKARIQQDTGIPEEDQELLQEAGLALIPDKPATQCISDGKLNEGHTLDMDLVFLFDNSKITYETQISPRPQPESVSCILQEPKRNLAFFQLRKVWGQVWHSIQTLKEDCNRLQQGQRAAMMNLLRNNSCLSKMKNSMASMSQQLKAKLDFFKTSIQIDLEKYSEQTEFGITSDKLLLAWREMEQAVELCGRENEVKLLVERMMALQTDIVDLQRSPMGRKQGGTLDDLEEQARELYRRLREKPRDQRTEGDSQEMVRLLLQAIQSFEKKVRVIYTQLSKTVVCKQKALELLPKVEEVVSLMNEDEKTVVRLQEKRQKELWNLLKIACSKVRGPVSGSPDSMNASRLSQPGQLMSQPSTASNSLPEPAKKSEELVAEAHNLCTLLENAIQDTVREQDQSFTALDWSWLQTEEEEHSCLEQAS
# Assay: IKK2 (IKKβ) resin enzyme assay
# Assay type: biochemical
# Details: Table 2; read-out: IKK2 Resin Avg. IC50
# From the text: cDNAs of human IKK1 and IKK2 were amplified by reverse transcriptase-polymerase chain reaction from human placental RNA (Clonetech). hIKK1 was subcloned into pFastBac HTa (Life Technologies) and expressed as N-terminal His6-tagged fusion protein. The hIKK2 cDNA was amplified using a reverse oligonucleotide primer which incorporated the peptide sequence for a FLAG-epitope tag at the C-terminus of the IKK2 coding region (DYKDDDDKD). The hIKK2:FLAG cDNA was subcloned into the baculovirus vector pFastBac. The rhIKK2 ([…]) mutant was constructed in the same vector used for wild type rhIKK2 using a QuikChange™ mutagenesis kit (Stratagene). Viral stocks of each construct were used to infect insect cells grown in 40L suspension culture. […] Cell lysates were stored at −80° C. until purification of the recombinant proteins was undertaken as described below.
# Isolation of rhIKK2 Homodimer
# A 10 liter culture of baculovirus-expressing IKK2 tagged with FLAG peptide was centrifuged and the cell pellet (MOI=0.1 and I=72 hrs) was re-suspended in buffer A. These cells were microfluidized, and centrifuged at 100,000×g for 45 min. Supernatant was passed over a G-25 column equilibrated with Buffer A. Protein peak was collected and incubated with anti-FLAG affinity resin on a rotator overnight in buffer B. The resin was washed in batch with 10-15 bed volumes of buffer C. Washed resin was poured into a column and rhIKK2 homodimer was eluted using 5 bed volumes of buffer B containing FLAG peptide. 5 mM DTT, 0.1% NP-40 and BSA (concentrated to 0.1% in final amount) was added to the eluted enzyme before concentrating in using an Amicon membrane with a molecular weight cut-off of 30 kDa. Enzyme was aliquoted and stored at −80° C.
# IKKβ kinase activity was measured using a biotinylated IκBα peptide (Gly-Leu-Lys-Lys-Glu-Arg-Leu-Leu-Asp-Asp-Arg-His-Asp-Ser32-Gly-Leu-Asp-Ser36-Met-Lys-Asp-Glu-Glu) (American Peptide Co.). […] contained 5 μM biotinylated IκBα peptide, 0.1 μCi/reaction [γ-^33P] ATP (Amersham) (about 1×10^5 cpm), 1 μM ATP (Sigma), 1 mM DTT (Sigma), 2 mM MgCl2 (Sigma), 2 mM MnCl2 (Sigma), 10 mM NaF (Sigma), 25 mM Hepes (Sigma) buffer, pH 7.6 and 20 μl enzyme solution and […] inhibitor in a final volume of 50 μl. After incubation at 25° C. for 30 min, 150 μl resin (Dowex anion-exchange resin AG1X8 200-400 mesh) in 900 mM formate, pH 3.0 was added to each well to stop the reaction. Resin was allowed to settle for one hour and 50 ul of supernatant was removed to a Micolite-2 flat bottom plate (Dynex). 150 μl of scintillation fluid (Microscint 40) (Packard) was added to each well. Incorporation of [γ-^33P] ATP was measured using a Top-Count NXT (Packard).
row,SMILES,IC50 [nM]
1,"CC(=O)N1Cc2c(C(N)=O)nn(-c3ccc4c(c3)OCO4)c2-c2cc(N)ccc21 [Example 17, 5-acetyl-8-amino-1-(1,3-benzodioxol-5-yl)-4,5-dihydro-1H-pyrazolo[4,3-c]quinoline-3-carboxamide acetate]",≤ 1000
2,"CC(=O)N1Cc2c(C(N)=O)nn(-c3ccc4c(c3)OCO4)c2-c2cc(NC(=O)c3ccccc3Cl)ccc21 [Example 18, 5-acetyl-1-(1,3-benzodioxol-5-yl)-8-[(2-chlorobenzoyl)amino]-4,5-dihydro-1H-pyrazolo[4,3-c]quinoline-3-carboxamide]",≤ 1000
3,"CC(=O)N1Cc2c(C(N)=O)nn(-c3ccc4c(c3)OCO4)c2-c2cc(NC(=O)c3ccncc3Cl)ccc21 [Example 22, 5-acetyl-1-(1,3-benzodioxol-5-yl)-8-[(3-chloroisonicotinoyl)amino]-4,5-dihydro-1H-pyrazolo[4,3-c]quinoline-3-carboxamide]",< 1000
4,"CC(=O)N1Cc2c(C(N)=O)nn(-c3ccc4c(c3)OCO4)c2-c2cc(NS(C)(=O)=O)ccc21 [Example 23, 5-acetyl-1-(1,3-benzodioxol-5-yl)-8-[(methylsulfonyl)amino]-4,5-dihydro-1H-pyrazolo[4,3-c]quinoline-3-carboxamide]",< 1000
5,"CC(=O)N1Cc2c(C(N)=O)nn(-c3ccc(F)cc3)c2-c2cc(NS(C)(=O)=O)ccc21 [Example 25, 5-acetyl-1-(4-fluorophenyl)-8-[(methylsulfonyl)amino]-4,5-dihydro-1H-pyrazolo[4,3-c]quinoline-3-carboxamide]",< 1000

# Same assay, conditions: Table 3; read-out: IKK2 Resin IC50
row,SMILES,IC50 [nM]
1,"NC(=O)c1nn(-c2ccc3c(c2)OCO3)c2c1COc1ccc(NC(=O)c3cc4c(cc3Cl)OCO4)cc1-2 [Example 31, 1-(1,3-benzodioxol-5-yl)-8-{[(6-chloro-1,3-benzodioxol-5-yl)carbonyl]amino}-1,4-dihydrochromeno[4,3-c]pyrazole-3-carboxamide]",≤ 1000
2,"NC(=O)c1nn(-c2ccc3c(c2)OCO3)c2c1COc1ccc(NC(=O)c3ccncc3Cl)cc1-2 [Example 32, 1-(1,3-benzodioxol-5-yl)-8-[(3-chloroisonicotinoyl)amino]-1,4-dihydrochromeno[4,3-c]pyrazole-3-carboxamide]",≤ 1000
3,"NC(=O)c1nn(-c2ccc3c(c2)OCO3)c2c1COc1ccc(NC(=O)c3cc(N)ccc3Cl)cc1-2 [Example 33, 8-[(5-amino-2-chlorobenzoyl)amino]-1-(1,3-benzodioxol-5-yl)-1,4-dihydrochromeno[4,3-c]pyrazole-3-carboxamide]",≤ 1000
4,"NC(=O)c1nn(-c2ccc3c(c2)OCO3)c2c1COc1ccc(NC(=O)c3ccccc3Cl)cc1-2 [Example 34, 1-(1,3-benzodioxol-5-yl)-8-[(2-chlorobenzoyl)amino]-1,4-dihydrochromeno[4,3-c]pyrazole-3-carboxamide]",≤ 1000
5,"NC(=O)c1nn(-c2ccc3c(c2)OCO3)c2c1COc1ccc(NC(=O)c3cccc(Cl)c3Cl)cc1-2 [Example 45, 1-(1,3-benzodioxol-5-yl)-8-[(2,3-dichlorobenzoyl)amino]-1,4-dihydrochromenol[4,3-c]pyrazole-3-carboxamide]",≥ 100000

# Same assay, conditions: Table 4; read-out: IKK2 Resin IC50
row,SMILES,IC50 [nM]
1,"NC(=O)c1nn(-c2ccc(F)cc2)c2c1COc1ccc(NC(=O)c3cccnc3Cl)cc1-2 [Example 47, 8-{[(2-chloropyridin-3-yl)carbonyl]amino}-1-(4-fluorophenyl)-1,4-dihydrochromenol[4,3-c]pyrazole-3-carboxamide]",≤ 1000
2,"NC(=O)c1nn(-c2cccc(F)c2)c2c1COc1ccc(NC(=O)c3cccnc3Cl)cc1-2 [Example 48, 8-{[(2-chloropyridin-3-yl)carbonyl]amino}-1-(3-fluorophenyl)-1,4-dihydrochromenol[4,3-c]pyrazole-3-carboxamide]",≤ 1000
3,"NC(=O)c1nn(-c2ccc(F)cc2)c2c1COc1ccc(NC(=O)c3ccncc3Cl)cc1-2 [Example 53, 8-[(3-chloroisonicotinoyl)amino]-1-(4-fluorophenyl)-1,4-dihydrochromeno[4,3-c]pyrazole-3-carboxamide]",< 1000

# Same assay, conditions: Table 5; read-out: IKK2 Resin IC50
row,SMILES,IC50 [nM]
1,"CS(=O)(=O)c1ccc(-n2nc(C(N)=O)c3c2-c2cc(NC(=O)c4ccccc4Cl)ccc2OC3)cc1 [Example 54, 8-[(2-chlorobenzoyl)amino]-1-[4-(methylsulfonyl)phenyl]-1,4-dihydrochromeno[4,3-c]pyrazole-3-carboxamide]",≤ 1000
2,"C[S+]([O-])c1ccc(-n2nc(C(N)=O)c3c2-c2cc(NC(=O)c4ccccc4Cl)ccc2OC3)cc1 (stereo not shown) [Example 55, 8-[(2-chlorobenzoyl)amino]-1-[4-(methylsulfinyl)phenyl]-1,4-dihydrochromeno[4,3-c]pyrazole-3-carboxamide]",≥ 1000
3,CSc1ccc(-n2nc(C(N)=O)c3c2-c2cc(NC(=O)c4ccccc4Cl)ccc2OC3)cc1 [Example 57],≥ 10000
